Measurements taken from ChEMBL document CHEMBL6120948, “Design, Synthesis, and Biological Evaluation of Lysine-Stapled Peptide Inhibitors of p53-MDM2/MDMX Interactions with Potent Antitumor Activity In Vivo” (J Med Chem, 2024).
Each block holds one molecule with its values, some of them ahead of it.

What was measured:
[1] = Antiproliferative activity against human SJSA-1 cells expressing wild-type p53 incubated for 72 hrs by MTT assay; type: functional, cell-based; conditions: SJSA-1, 72 h
[2] = Antiproliferative activity against human U-87 MG cells expressing wild-type p53 incubated for 72 hrs by MTT assay; type: functional, cell-based, U-87MG ATCC
[3] = tested on: HCT-116; test: Induction of cell cycle arrest in human HCT-116 cells assessed as accumulation at G1 phase at 20 uM incubated for 24 hrs by PI staining based flow cytometry (reference value: 50.7 %); type: functional
[4] = tested on: HCT-116; test: Induction of cell cycle arrest in human HCT-116 cells assessed as accumulation at S phase at 5 uM incubated for 24 hrs by PI staining based flow cytometry (reference value: 29.4 %); type: functional
[5] = tested on: ZR-75-1; test: Antiproliferative activity against human ZR-75-1 cells expressing wild-type p53 incubated for 72 hrs by MTT assay; type: functional, cell-based; conditions: ZR-75-1, 72 h
[6] = tested on: HCT-116; test: Induction of apoptosis in human HCT-116 cells at 25 uM incubated for 48 hrs by Annexin V-FITC/PI staining based flow cytometry relative to control; type: functional
[7] = tested on: HCT-116; test: Induction of cell cycle arrest in human HCT-116 cells assessed as accumulation at G2 phase at 10 uM incubated for 24 hrs by PI staining based flow cytometry (reference value: 17.5 %); type: functional
[8] = tested on: HCT-116; test: Induction of cell cycle arrest in human HCT-116 cells assessed as accumulation at G1 phase at 5 uM incubated for 24 hrs by PI staining based flow cytometry (reference value: 50.7 %); type: functional
[9] = tested on: HeLa; test: Antiproliferative activity against human HeLa cells expressing wild-type p53 incubated for 72 hrs by MTT assay; type: functional, cell-based
[10] = Stability of compound in 50 percent human serum assessed as half life measured for 24 hrs by HPLC analysis; type: ADME, cell-free; conditions: 50% human serum
[11] = tested on: HepG2; test: Antiproliferative activity against human HepG2 cells expressing wild-type p53 incubated for 72 hrs by MTT assay; type: functional, cell-based; conditions: HepG2, 72 h
[12] = tested on: HCT-116; test: Induction of apoptosis in human HCT-116 cells at 50 uM incubated for 48 hrs by Annexin V-FITC/PI staining based flow cytometry relative to control; type: functional
[13] = tested on: HCT-116; test: Induction of cell cycle arrest in human HCT-116 cells assessed as accumulation at G2 phase at 5 uM incubated for 24 hrs by PI staining based flow cytometry (reference value: 17.5 %); type: functional
[14] = tested on: HCT-116; test: Induction of apoptosis in human HCT-116 cells at 100 uM incubated for 48 hrs by Annexin V-FITC/PI staining based flow cytometry relative to control; type: functional
[15] = tested on: HCT-116; test: Induction of cell cycle arrest in human HCT-116 cells assessed as accumulation at S phase at 20 uM incubated for 24 hrs by PI staining based flow cytometry (reference value: 29.4 %); type: functional
[16] = tested on: A549; test: Antiproliferative activity against human A549 cells expressing wild-type p53 incubated for 72 hrs by MTT assay; type: functional, cell-based; conditions: A549, 72 h
[17] = tested on: A-375; test: Antiproliferative activity against human A-375 cells expressing wild-type p53 incubated for 72 hrs by MTT assay; type: functional, cell-based; conditions: A-375, 72 h
[18] = Induction of alpha-helical conformation in phosphate buffer at pH 7 at 100 uM by CD analysis; type: physicochemical; conditions: pH 7, 100 µM
[19] = tested on: MCF7; test: Antiproliferative activity against human MCF7 cells expressing wild-type p53 incubated for 72 hrs by MTT assay; type: functional, cell-based; conditions: MCF7, 72 h
[20] = tested on: HCT-116; test: Induction of cell cycle arrest in human HCT-116 cells assessed as accumulation at S phase at 10 uM incubated for 24 hrs by PI staining based flow cytometry (reference value: 29.4 %); type: functional
[21] = tested on: HCT-116; test: Induction of cell cycle arrest in human HCT-116 cells assessed as accumulation at G1 phase at 10 uM incubated for 24 hrs by PI staining based flow cytometry (reference value: 50.7 %); type: functional
[22] = tested on: HCT-116; test: Induction of cell cycle arrest in human HCT-116 cells assessed as accumulation at G2 phase at 20 uM incubated for 24 hrs by PI staining based flow cytometry (reference value: 17.5 %); type: functional
[23] = Antiproliferative activity against HEK293T cells incubated for 72 hrs by MTT assay; type: toxicity, cell-based, HEK-293T; conditions: human
[24] = tested on: HCT-116; test: Antiproliferative activity against human HCT-116 cells expressing wild-type p53 incubated for 72 hrs by MTT assay; type: functional, cell-based; conditions: HCT-116, 72 h
[25] = Toxicity in BALB/c nude mouse xenografted with human HCT-116 cells assessed as change in weight of heart at 5 to 10 mg/kg, iv treated for 14 days on every 48 hrs; type: organism-based; conditions: in vivo, 336 h, dose 5-10 mg/kg, time 14 day
[26] = Toxicity in BALB/c nude mouse xenografted with human HCT-116 cells assessed as histopathological change in kidneys at 5 to 10 mg/kg, iv treated for 14 days on every 48 hrs by H and E staining based analysis; type: organism-based; conditions: in vivo, 336 h, dose 5-10 mg/kg, time 14 day
[27] = tested on: HCT-116; test: Induction of cell cycle arrest in human HCT-116 cells assessed as accumulation at G2 phase at 20 uM incubated for 24 hrs by PI staining based flow cytometry (reference value: 17.1 %); type: functional
[28] = tested on: HCT-116; test: Induction of cell cycle arrest in human HCT-116 cells assessed as accumulation at S phase at 10 uM incubated for 24 hrs by PI staining based flow cytometry (reference value: 31.8 %); type: functional
[29] = tested on: HCT-116; test: Induction of cell cycle arrest in human HCT-116 cells assessed as accumulation at S phase at 20 uM incubated for 24 hrs by PI staining based flow cytometry (reference value: 31.8 %); type: functional
[30] = Toxicity in BALB/c nude mouse xenografted with human HCT-116 cells assessed as histopathological change in spleen at 5 to 10 mg/kg, iv treated for 14 days on every 48 hrs by H and E staining based analysis; type: organism-based; conditions: in vivo, 336 h, dose 5-10 mg/kg, time 14 day
[31] = Toxicity in BALB/c nude mouse xenografted with human HCT-116 cells assessed as histopathological change in lungs at 5 to 10 mg/kg, iv treated for 14 days on every 48 hrs by H and E staining based analysis; type: organism-based; conditions: in vivo, 336 h, dose 5-10 mg/kg, time 14 day
[32] = tested on: HCT-116; test: Antitumor activity against human HCT-116 cells xenografted in BALB/c nude mouse at 5 mg/kg, iv treated for 14 days on every 48 hrs relative to control; type: functional; conditions: HCT-116, 336 h, time 14 day, read-out: TGI
[33] = Toxicity in BALB/c nude mouse xenografted with human HCT-116 cells assessed as change in body weight at 5 to 10 mg/kg, iv treated for 14 days on every 48 hrs; type: organism-based; conditions: in vivo, 336 h, dose 5-10 mg/kg, time 14 day
[34] = Toxicity in BALB/c nude mouse xenografted with human HCT-116 cells assessed as histopathological change in heart at 5 to 10 mg/kg, iv treated for 14 days on every 48 hrs by H and E staining based analysis; type: organism-based; conditions: in vivo, 336 h, dose 5-10 mg/kg, time 14 day
[35] = Toxicity in BALB/c nude mouse xenografted with human HCT-116 cells assessed as histopathological change in liver at 5 to 10 mg/kg, iv treated for 14 days on every 48 hrs by H and E staining based analysis; type: organism-based; conditions: in vivo, 336 h, dose 5-10 mg/kg, time 14 day
[36] = Toxicity in BALB/c nude mouse xenografted with human HCT-116 cells assessed as change in weight of spleen at 5 to 10 mg/kg, iv treated for 14 days on every 48 hrs; type: organism-based; conditions: in vivo, 336 h, dose 5-10 mg/kg, time 14 day
[37] = tested on: HCT-116; test: Induction of cell cycle arrest in human HCT-116 cells assessed as accumulation at G1 phase at 20 uM incubated for 24 hrs by PI staining based flow cytometry (reference value: 48.8 %); type: functional
[38] = tested on: HCT-116; test: Induction of cell cycle arrest in human HCT-116 cells assessed as accumulation at S phase at 5 uM incubated for 24 hrs by PI staining based flow cytometry (reference value: 31.8 %); type: functional
[39] = tested on: HCT-116; test: Induction of cell cycle arrest in human HCT-116 cells assessed as accumulation at G1 phase at 5 uM incubated for 24 hrs by PI staining based flow cytometry (reference value: 48.8 %); type: functional
[40] = Toxicity in BALB/c nude mouse xenografted with human HCT-116 cells assessed as change in weight of liver at 5 to 10 mg/kg, iv treated for 14 days on every 48 hrs; type: organism-based; conditions: in vivo, 336 h, dose 5-10 mg/kg, time 14 day
[41] = Toxicity in BALB/c nude mouse xenografted with human HCT-116 cells assessed as change in weight of kidneys at 5 to 10 mg/kg, iv treated for 14 days on every 48 hrs; type: organism-based; conditions: in vivo, 336 h, dose 5-10 mg/kg, time 14 day
[42] = Toxicity in BALB/c nude mouse xenografted with human HCT-116 cells assessed as change in weight of lungs at 5 to 10 mg/kg, iv treated for 14 days on every 48 hrs; type: organism-based; conditions: in vivo, 336 h, dose 5-10 mg/kg, time 14 day
[43] = tested on: HCT-116; test: Induction of cell cycle arrest in human HCT-116 cells assessed as accumulation at G2 phase at 10 uM incubated for 24 hrs by PI staining based flow cytometry (reference value: 17.1 %); type: functional
[44] = tested on: HCT-116; test: Induction of cell cycle arrest in human HCT-116 cells assessed as accumulation at G2 phase at 5 uM incubated for 24 hrs by PI staining based flow cytometry (reference value: 17.1 %); type: functional
[45] = tested on: HCT-116; test: Antitumor activity against human HCT-116 cells xenografted in BALB/c nude mouse at 10 mg/kg, iv treated for 14 days on every 48 hrs relative to control; type: functional; conditions: HCT-116, 336 h, time 14 day, read-out: TGI
[46] = tested on: HCT-116; test: Induction of cell cycle arrest in human HCT-116 cells assessed as accumulation at G1 phase at 10 uM incubated for 24 hrs by PI staining based flow cytometry (reference value: 48.8 %); type: functional

IC50 [9]: 91.8 µM
half-life [10]: 3 h
IC50 [11]: > 160 µM
IC50 [16]: 6.4 µM
IC50 [17]: > 160 µM
Activity [18]: 11%
IC50 [19]: 25.3 µM
IC50 [24]: 14.6 µM
Structure (SMILES): CSCC[C@H](NC(=O)[C@H](CC(C)C)NC(=O)[C@H](CCC(N)=O)NC(=O)[C@@H]1CCCCNCc2ccc(cc2)CNCCCC[C@H](NC(=O)[C@H](Cc2ccccc2)NC(=O)[C@@H](NC(=O)[C@H](CC(C)C)NC(C)=O)[C@@H](C)O)C(=O)N[C@@H](CCC(=O)O)C(=O)N[C@@H](Cc2ccc(O)cc2)C(=O)N[C@@H](Cc2c[nH]c3ccccc23)C(=O)N1)C(=O)N[C@@H](CCC(N)=O)C(=O)N[C@@H](C)C(=O)N[C@@H](C)C(N)=O
IC50 [1]: > 160 µM
IC50 [2]: 7.2 µM
Activity [3]: 34.1%
Activity [4]: 40.5%
IC50 [5]: 7.2 µM
Activity [6]: 55.66%
Activity [7]: 29%
Activity [8]: 33.8%
Activity [12]: 56.51%
Activity [13]: 23.9%
Activity [14]: 70.13%
Activity [15]: 32.3%
Activity [20]: 36.2%
Activity [21]: 33.9%
Activity [22]: 32.7%
IC50 at 72 h [23]: > 160 µM

IC50 [9]: 45.9 µM
half-life [10]: 12 h
IC50 [11]: > 160 µM
IC50 [16]: 27.4 µM
IC50 [17]: 49.2 µM
Activity [18]: 11%
IC50 [19]: 2.99 µM
IC50 [24]: 5.8 µM
Structure (SMILES): CC(=O)N[C@@H](CC(C)C)C(=O)N[C@H](C(=O)N[C@@H](Cc1ccccc1)C(=O)N[C@H]1CCCCNCc2cccc(c2)CNCCCC[C@@H](C(=O)N[C@@H](CCC(N)=O)C(=O)N[C@@H](CC(C)C)C(=O)N[C@H](C(=O)N[C@@H](CO)C(=O)N[C@@H](C)C(=O)N[C@@H](C)C(N)=O)[C@@H](C)O)NC(=O)[C@H](Cc2c[nH]c3ccccc23)NC(=O)[C@H](Cc2ccc(O)cc2)NC(=O)[C@H](Cc2c[nH]cn2)NC1=O)[C@@H](C)O
Activity [25]: Non-toxic
IC50 [1]: > 160 µM
IC50 [2]: 3.7 µM
Activity [26]: Non-toxic
Activity [27]: 31.2%
Activity [28]: 33%
Activity [29]: 30.5%
IC50 [5]: 2.6 µM
Activity [6]: 35.22%
Activity [30]: Non-toxic
Activity [31]: Non-toxic
inhibition in vivo at 5 mg/kg [32]: 13%
Activity [33]: Non-toxic
Activity [34]: Non-toxic
Activity [35]: Non-toxic
Activity [12]: 94.4%
Activity [14]: 93.14%
Activity [36]: Non-toxic
Activity [37]: 37.4%
Activity [38]: 37.7%
Activity [39]: 35.6%
Activity [40]: Non-toxic
Activity [41]: Non-toxic
Activity [42]: Non-toxic
Activity [43]: 28%
Activity [44]: 25.3%
inhibition in vivo at 10 mg/kg [45]: 30%
Activity [46]: 38.1%
IC50 at 72 h [23]: > 160 µM
